Legend:
[1] = test system: ST HDH Q111/111 striatal cells; assay: Permeability/Cell Death assay based on CellTox Green (membrane integrity)
Description: (§1) All cell culture methods were carried out under sterile conditions in a class II laminar flow cabinet. The immortalized cell lines, ST HDH Q111/111 and ST HDH Q7/7 were derived from striatal neurons from HdhQ111/Q111 and HdhQ7/Q7 mice (expressing 111 and 7 glutamine repeats, respectively) and were purchased from Coriell. Cells were cultured in Dulbecco's Modified Eagle Medium (DMEM) supplemented with 10% FBS, 4 mM L-alanyl-L-glutamine (Corning Glutagro), and 400 μg/mL G418. Cells were grown at 33° C. in a 5% CO2 incubator. All experiments used cells with passages lower than 14.
(§2) Cells were plated at a density of 8×10^3 or 1.2×10^3 cells/well (CellTox or XTT, respectively) in sterile 96 well plates (100 uL). Cells were allowed to adhere overnight at 33° C. in a 5% CO2 incubator. Test compounds were applied and left to incubate for an additional 24 hours. Membrane integrity was assessed by staining with CellTox Green (Promega) reagent following manufacturer guidelines for the Endpoint (2×) Method. Viability was assessed using an XTT Cell Proliferation Kit (ATCC). Before adding XTT reagent, wells were aspirated and washed with serum free media. 50 uL of XTT reagent and 100 uL serum free media were then added to each well and incubated for 2-4 hours before acquiring data. […]

striatal cells = assay: Live cell count after 24 or 48 hours of culture with glutamate (Cellometer); assay type: cell-based, mice; conditions: cells cultured with glutamate, cysteamine administered 24 hours later; FIG. 3
Description: All experiments used cells with passages lower than 14. Cells were seeded into sterile 12 well plates at an appropriate density (80-120 k cells/well) to reach 50-75% confluence after 24 hours. […] Thereafter, wells were treated with test compounds. Following incubation with the compounds for 24 or 48 hours, wells were rinsed with DPBS, and detached using 500 uL Accutase (EMD). Pellets were rinsed and re-suspended in 250 uL DPBS and live cells were counted on a Cellometer Auto 2000.

HDH Q111/111 cells = assay: XTT Cell Proliferation assay (viability); conditions: FIGS. 2A and 2B
Description: as §1, §2

SMILES | number of dead cells (CellTox Green) ([1]; HDH cells cultured with cysteamine and BSO, compared to BSO alone) | sensitivity of cells to toxicity induced by glutamate and/or the test agents ([1]; cysteamine in combination with GFPB (5 mM), and NMDA (500 uM)+4CPG (250 uM) or BSO (250 uM), FIG. 1B) | cell viability (striatal cells) | rescue of glutamate-induced excitotoxicity (XTT Cell Proliferation) (HDH Q111/111 cells; cysteamine 25 μM in culture with glutamate) | rescue of glutamate-induced excitotoxicity (XTT Cell Proliferation) (HDH Q111/111 cells; cysteamine 75 μM in culture with glutamate) | cytotoxicity (Cell Tox Green) ([1]; 5 mM glutamate given alone, 24 hours, FIG. 1A) | glutamate excitotoxicity (XTT Cell Proliferation) (HDH Q111/111 cells; glutamate in culture, HDH Q111/111 cells)
NCCS [cysteamine, 2-aminoethanethiol] | reduced the number of dead cells | able to reduce sensitivity of cells to toxicity | positive effects of cysteamine on the cell viability was still observed | able to rescue glutamate-induced excitotoxicity | able to rescue glutamate-induced excitotoxicity |  | 
N[C@@H](CCC(=O)O)C(=O)O [glutamate, L-Glutamic acid] |  |  |  |  |  | toxic to cells | experience glutamate excitotoxicity

Reference: patent US20210113496A1, “Methods of Treating Excitotoxicity Disorders” (HORIZON ORPHAN LLC, priority 2018, published 2021)
